From patent US11648254B2 (Kumquat Biosciences Inc., priority 2021, dated 2023)
Like-named read-outs stand apart in the source and are kept apart here.

Legend:
SOS1 = SOS1 (Homo sapiens (Human), UniProt Q07889); experiment: Ras-SOS interaction assay (HTRF); assay type: biochemical
[1] = tested on: MIA PaCa-2 cells (K-Ras G12C); experiment: Ras-SOS cellular growth inhibition assay (CellTiter-Glo, 3D); assay type: cell-based; conditions: Homo sapiens
How it was run: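 Growth read by CellTiter-Glo luminescence about 5 days after dosing with 3-fold dilutions (9 points), added one day post-seeding. Cells: MIA PaCa-2, 3D culture on ultra-low-attachment surface, medium DMEM/Ham's F12 plus 10% FCS and 2.5% horse serum; IC50 by four-parameter fit.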

[2] = tested on: NCI-H1975 cells (EGFR T790M L858R); experiment: EGFR-SOS cellular inhibition assay (CellTiter-Glo, 3D); assay type: cell-based; conditions: Homo sapiens
[3] = K-RasG13D utilized, read-out: IC50 inhibition of SOS
[4] = K-RasG13D, read-out: IC50 value against SOS1
[5] = MIA PaCa-2, 120 h, MIA PaCa-2, 3D proliferation, about 5 days, read-out: Bio-Cell-Prolif-3D (MiaPaca2 IC50)
[6] = MIA PaCa-2, MIA PaCa-2, read-out: IC50 in inhibiting MIA PaCa-2 cell growth
[7] = 120 h, NCI-H1975, 3D proliferation, about 5 days, read-out: Bio-Cell-Prolif-3D (H1975 IC50)
[8] = NCI-H1975, EGFR T790M L858R, read-out: IC50 in inhibiting growth of NCI-H1975 cell line

Chain of SOS1 (Q07889 564-1049): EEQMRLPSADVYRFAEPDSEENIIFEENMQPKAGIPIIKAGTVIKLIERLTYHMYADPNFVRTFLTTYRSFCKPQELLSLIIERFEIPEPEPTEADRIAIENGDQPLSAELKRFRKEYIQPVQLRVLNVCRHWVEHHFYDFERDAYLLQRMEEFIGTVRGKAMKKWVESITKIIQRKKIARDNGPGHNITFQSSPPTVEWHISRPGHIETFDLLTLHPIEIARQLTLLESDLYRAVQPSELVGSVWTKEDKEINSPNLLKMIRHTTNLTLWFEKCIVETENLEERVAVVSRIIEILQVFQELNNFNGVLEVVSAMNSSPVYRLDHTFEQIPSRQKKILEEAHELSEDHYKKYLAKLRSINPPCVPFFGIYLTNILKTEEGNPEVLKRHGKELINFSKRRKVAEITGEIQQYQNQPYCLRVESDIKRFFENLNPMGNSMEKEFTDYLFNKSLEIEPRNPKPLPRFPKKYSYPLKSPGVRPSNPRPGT

Row | Compound | IC50 (SOS1; [3]) [nM] | IC50 (SOS1; [4]) [nM] | IC50 [1, 5] [nM] | IC50 [1, 6] [nM] | IC50 [2, 7] [nM] | IC50 [2, 8] [nM]
1 | Cc1nc(N[C@H](C)c2cccc(C(F)F)c2F)c2cc(S(=O)(=O)C3CCN(C)CC3)c(C#N)nc2n1 [Compound 341, (R)-4-((1-(3-(difluoromethyl)-2-fluorophenyl)ethyl)amino)-2-methyl-6-((1-methylpiperidin-4-yl)sulfonyl)pyrido[2,3-d] pyrimidine-7-carbonitrile] | < 100 | < 50 | ≤ 1000 | < 500 | ≤ 1000 | < 500
2 | COc1nc2ncnc(N[C@H](C)c3cccc(C(F)F)c3F)c2cc1C1(C#N)CCS(=O)(=O)CC1 [Compound 342, (R)-4-(4-((1-(3-(difluoromethyl)-2-fluorophenyl)ethyl)amino)-7-methoxypyrido[2,3-d]pyrimidin-6-yl)tetrahydro-2H-thiopyran-4-carbonitrile 1,1-dioxide] | < 100 | < 50 | ≤ 1000 |  | ≤ 1000 | < 500
3 | COCCOc1nc2nc(C)nc(N[C@H](C)c3cccc(C(F)F)c3F)c2cc1N1CCN(C)CC1 [Compound 343, (R)-N-(1-(3-(difluoromethyl)-2-fluorophenyl)ethyl)-7-(2-methoxyethoxy)-2-methyl-6-(4-methylpiperazin-1-yl)pyrido[2,3-d] pyrimidin-4-amine] | < 100 | < 50 | ≤ 1000 |  | ≤ 1000 | < 500
4 | COc1nc2nc(C)nc(N[C@H](C)c3cccc(C(F)(F)CO)c3)c2cc1N1CCN(C(C)C)CC1 [Compound 345, (R)-2,2-difluoro-2-(3-(1-((6-(4-isopropylpiperazin-1-yl)-7-methoxy-2-methylpyrido[2,3-d]pyrimidin-4-yl)amino)ethyl)phenyl)ethan-1-ol] | < 100 | < 50 | ≤ 1000 | < 500 | ≤ 1000 | < 500
5 | Cc1nc(N[C@H](C)c2cccc(C(F)(F)F)c2F)c2cc(C3(C#N)CC3)c(N3CCN(C(C)C)CC3)nc2n1 [Compound 346, (R)-1-(4-((1-(2-fluoro-3-(trifluoromethyl)phenyl)ethyl)amino)-7-(4-isopropylpiperazin-1-yl)-2-methylpyrido[2,3-d]pyrimidin-6-yl)cyclopropane-1-carbonitrile] | < 100 | < 50 | ≤ 1000 | < 500 | ≤ 1000 | < 500
6 | Cc1nc(N[C@H](C)c2cccc(C(F)(F)CO)c2F)c2cc(C3(C#N)CC3)c(N3CCN(C(C)C)CC3)nc2n1 [Compound 347, (R)-1-(4-((1-(3-(1,1-difluoro-2-hydroxyethyl)-2-fluorophenyl)ethyl)amino)-7-(4-isopropylpiperazin-1-yl)-2-methylpyrido[2,3-d]pyrimidin-6-yl)cyclopropane-1-carbonitrile] | < 100 | < 50 | ≤ 1000 | < 500 | ≤ 1000 | < 500
7 | COc1nc2nc(C)nc(N[C@H](C)c3cccc(C(F)(F)F)c3F)c2cc1N1CCN(C)CC1 [Compound 349, (R)-N-(1-(2-fluoro-3-(trifluoromethyl)phenyl)ethyl)-7-methoxy-2-methyl-6-(4-methylpiperazin-1-yl)pyrido[2,3-d]pyrimidin-4-amine] | < 100 | < 50 | ≤ 1000 | < 500 | ≤ 1000 | < 500
8 | CCN1CCN(c2cc3c(N[C@H](C)c4cccc(C(F)(F)F)c4C)nc(C)nc3nc2OC)CC1 [Compound 350, (R)-6-(4-ethylpiperazin-1-yl)-7-methoxy-2-methyl-N-(1-(2-methyl-3-(trifluoromethyl)phenyl)ethyl)pyrido [2,3-d]pyrimidin-4-amine] | < 100 | < 50 | ≤ 1000 | < 500 | ≤ 1000 | < 500
9 | Cc1nc(N[C@H](C)c2cccc(C(F)F)c2F)c2cc(N3CCN(C(C)C)CC3)c(OCCN(C)C)nc2n1 [Compound 359, (R)-N-(1-(3-(difluoromethyl)-2-fluorophenyl)ethyl)-7-(2-(dimethylamino)ethoxy)-6-(4-isopropylpiperazin-1-yl)-2-methylpyrido[2,3-d] pyrimidin-4-amine] | < 100 | < 50 | ≤ 1000 | < 500 | ≤ 1000 | < 500
10 | COCCOc1nc2nc(C)nc(N[C@H](C)c3cccc(C(F)F)c3F)c2cc1N1CCN(C(C)C)CC1 [Compound 360, (R)-N-(1-(3-(difluoromethyl)-2-fluorophenyl)ethyl)-6-(4-isopropylpiperazin-1-yl)-7-(2-methoxyethoxy)-2-methylpyrido [2,3-d]pyrimidin-4-amine] | < 100 | < 50 | ≤ 1000 | < 500 | ≤ 1000 | < 500
11 | Cc1c([C@@H](C)Nc2ncnc3nc(Cl)c(C4(C#N)CC4)cc23)cccc1C(F)(F)F [Compound 364, (R)-1-(7-chloro-4-((1-(2-methyl-3-(trifluoromethyl)phenyl)ethyl)amino)pyrido[2,3-d]pyrimidin-6-yl) cyclopropane-1-carbonitrile] | 100 to 1000 |  | 1000 to 10000 |  | ≤ 1000 | < 500
12 | Cc1nc(N[C@H](C)c2cccc(C(F)F)c2F)c2cc(N3CCN(C(C)C)CC3)c(OC3CNC3)nc2n1 [Compound 367, (R)-7-(azetidin-3-yloxy)-N-(1-(3-(difluoromethyl)-2-fluorophenyl)ethyl)-6-(4-isopropylpiperazin-1-yl)-2-methylpyrido[2,3-d]pyrimidin-4-amine] | < 100 | < 50 | 1000 to 10000 |  | ≤ 1000 | < 500
13 | COCCOc1nc2nc(C)nc(N[C@H](C)c3cccc(C(F)F)c3F)c2cc1C1CCS(=N)(=O)CC1 (stereo partly drawn) [Compound 368, (R)-4-(4-((1-(3-(difluoromethyl)-2-fluorophenyl)ethyl)amino)-7-(2-methoxyethoxy)-2-methylpyrido[2,3-d]pyrimidin-6-yl)-1-iminohexahydro-1l6-thiopyran 1-oxide] | < 100 | < 50 | 1000 to 10000 |  | ≤ 1000 | < 500
14 | Cc1nc(N[C@H](C)c2cccc(C(F)F)c2F)c2cc(C3CCN(C(C)C)CC3)c(OCCN(C)C)nc2n1 [Compound 369, (R)-N-(1-(3-(difluoromethyl)-2-fluorophenyl)ethyl)-7-(2-(dimethylamino)ethoxy)-6-(1-isopropylpiperidin-4-yl)-2-methylpyrido[2,3-d] pyrimidin-4-amine] | < 100 | < 50 | 1000 to 10000 |  | ≤ 1000 | 
15 | Cc1nc(N[C@H](C)c2cccc(C(F)F)c2F)c2cc(N3CCN(C(C)C)CC3)c(OC3CN(C)C3)nc2n1 [Compound 370, (R)-N-(1-(3-(difluoromethyl)-2-fluorophenyl)ethyl)-6-(4-isopropylpiperazin-1-yl)-2-methyl-7-((1-methylazetidin-3-yl)oxy)pyrido[2,3-d]pyrimidin-4-amine] | < 100 | < 50 | ≤ 1000 |  | ≤ 1000 | 
16 | CCN1CCN(c2cc3c(N[C@H](C)c4cccc(C(F)F)c4F)ncnc3nc2OC)CC1 [Compound 372, (R)-N-(1-(3-(difluoromethyl)-2-fluorophenyl)ethyl)-6-(4-ethylpiperazin-1-yl)-7-methoxypyrido[2,3-d]pyrimidin-4-amine] | < 100 |  | ≤ 1000 | < 500 | ≤ 1000 | < 500
17 | COc1nc2nc(C)nc(N[C@H](C)c3cccc(C(F)(F)C4CCN(C(C)C)CC4)c3F)c2cc1C1CCS(=O)(=O)CC1 [Compound 379, (R)-4-(4-((1-(3-(difluoro(1-isopropylpiperidin-4-yl)methyl)-2-fluorophenyl)ethyl)amino)-7-methoxy-2-methylpyrido[2,3-d]pyrimidin-6-yl)tetrahydro-2H-thiopyran 1,1-dioxide] | < 100 | < 50 | ≤ 1000 | < 500 | ≤ 1000 | < 500
18 | COc1nc2ncnc(N[C@H](C)c3cccc(C(F)(F)F)c3C)c2cc1N1CCS(=O)(=O)CC1 [Compound 381, (R)-4-(7-methoxy-4-((1-(2-methyl-3-(trifluoromethyl)phenyl)ethyl)amino)pyrido[2,3-d]pyrimidin-6-yl) thiomorpholine 1,1-dioxide] | < 100 | < 50 | ≤ 1000 | < 500 | ≤ 1000 | < 500
19 | CCN1CCN(c2cc3c(N[C@H](C)c4cccc(C(F)(F)F)c4F)nc(C)nc3nc2OC)CC1 [Compound 383, (R)-6-(4-ethylpiperazin-1-yl)-N-(1-(2-fluoro-3-(trifluoromethyl)phenyl)ethyl)-7-methoxy-2-methylpyrido[2,3-d]pyrimidin-4-amine] | < 100 | < 50 | ≤ 1000 | < 500 | ≤ 1000 | < 500
20 | CC(C)N1CCC(c2cc3c(N[C@H](C)c4cccc(C(F)(F)F)c4F)ncnc3nc2Cl)CC1 [Compound 384, (R)-7-chloro-N-(1-(2-fluoro-3-(trifluoromethyl)phenyl)ethyl)-6-(1-isopropylpiperidin-4-yl)pyrido[2,3-d] pyrimidin-4-amine] | < 100 | < 50 | ≤ 1000 | < 500 | ≤ 1000 | < 500
